# US12258328B2, “6-membered heteroaryl-containing aminopyridine compounds as EGFR inhibitors” (YUHAN CORPORATION, priority 2021, dated 2025)
# Like-named read-outs stand apart in the source and are kept apart here.
# Tests used:
# EGFR wildtype = EGFR wildtype (Homo sapiens, UniProt P00533); assay: Biochemical EGFR kinase assay (Lance Ultra TR-FRET), wildtype
# Method in brief: (§1)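 Step 1: compound in kinase buffer, 0.003–10 μM. Step 2: kinase reaction 1 h at room temperature. Step 4: TR-FRET read at 615/665 nm; IC50 calculated.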
# EGFR L858R/C797S = EGFR L858R/C797S (Homo sapiens, UniProt P00533, C797S/L858R); assay: Biochemical EGFR kinase assay (Lance Ultra TR-FRET), double mutant L858R/C797S
# Method in brief: as §1
# EGFR del19/C797S = EGFR del19/C797S (Homo sapiens, UniProt P00533, C797S/DEL746-750); assay: Biochemical EGFR kinase assay (Lance Ultra TR-FRET), double mutant del19/C797S
# Method in brief: as §1
# EGFR del19/T790M/C797S = EGFR del19/T790M/C797S (Homo sapiens, UniProt P00533, C797S/DEL746-750/T790M); assay: Biochemical EGFR kinase assay (Lance Ultra TR-FRET), triple mutant del19/T790M/C797S
# Method in brief: as §1
# EGFR L858R/T790M/C797S = EGFR L858R/T790M/C797S (Homo sapiens, UniProt P00533, C797S/L858R/T790M); assay: Biochemical EGFR kinase assay (Lance Ultra TR-FRET), triple mutant L858R/T790M/C797S
# Method in brief: as §1
# [1] = IC50 WT (nM) 100 μM ATP, 100 μM ATP
# [2] = IC50 L858R/C797S (nM) 100 μM ATP, 100 μM ATP
# [3] = IC50 del19/C797S (nM) 100 μM ATP, 100 μM ATP
# [4] = IC50 del19/T790M/C797S (nM) 100 μM ATP, 100 μM ATP
# [5] = IC50 L858R/T790M/C797S (nM) 100 μM ATP, 100 μM ATP
# [6] = ATP at Km, read-out: IC50 WT, Km ATP
# [7] = ATP at Km, read-out: IC50 L858R/C797S, Km ATP
# [8] = ATP at Km, read-out: IC50 del19/C797S, Km ATP
# [9] = ATP at Km, read-out: IC50 del19/T790M/C797S, Km ATP
# [10] = IC50 del19/T790M/C797S, 100 μM ATP
# [11] = ATP at Km, read-out: IC50 L858R/T790M/C797S, Km ATP
# [12] = IC50 L858R/T790M/C797S, 100 μM ATP
# [13] = Km ATP, read-out: IC50 WT (nM) Km ATP
# [14] = Km ATP, read-out: IC50 L858R/C797S (nM) Km ATP
# [15] = Km ATP, read-out: IC50 del19/C797S (nM) Km ATP
# [16] = Km ATP, read-out: IC50 del19/T790M/C797S (nM) Km ATP
# [17] = Km ATP, read-out: IC50 L858R/T790M/C797S (nM) Km ATP
# Chain of EGFR del19/T790M/C797S (P00533 with tags, fused parts or gaps DEL746-750/T790M/C797S): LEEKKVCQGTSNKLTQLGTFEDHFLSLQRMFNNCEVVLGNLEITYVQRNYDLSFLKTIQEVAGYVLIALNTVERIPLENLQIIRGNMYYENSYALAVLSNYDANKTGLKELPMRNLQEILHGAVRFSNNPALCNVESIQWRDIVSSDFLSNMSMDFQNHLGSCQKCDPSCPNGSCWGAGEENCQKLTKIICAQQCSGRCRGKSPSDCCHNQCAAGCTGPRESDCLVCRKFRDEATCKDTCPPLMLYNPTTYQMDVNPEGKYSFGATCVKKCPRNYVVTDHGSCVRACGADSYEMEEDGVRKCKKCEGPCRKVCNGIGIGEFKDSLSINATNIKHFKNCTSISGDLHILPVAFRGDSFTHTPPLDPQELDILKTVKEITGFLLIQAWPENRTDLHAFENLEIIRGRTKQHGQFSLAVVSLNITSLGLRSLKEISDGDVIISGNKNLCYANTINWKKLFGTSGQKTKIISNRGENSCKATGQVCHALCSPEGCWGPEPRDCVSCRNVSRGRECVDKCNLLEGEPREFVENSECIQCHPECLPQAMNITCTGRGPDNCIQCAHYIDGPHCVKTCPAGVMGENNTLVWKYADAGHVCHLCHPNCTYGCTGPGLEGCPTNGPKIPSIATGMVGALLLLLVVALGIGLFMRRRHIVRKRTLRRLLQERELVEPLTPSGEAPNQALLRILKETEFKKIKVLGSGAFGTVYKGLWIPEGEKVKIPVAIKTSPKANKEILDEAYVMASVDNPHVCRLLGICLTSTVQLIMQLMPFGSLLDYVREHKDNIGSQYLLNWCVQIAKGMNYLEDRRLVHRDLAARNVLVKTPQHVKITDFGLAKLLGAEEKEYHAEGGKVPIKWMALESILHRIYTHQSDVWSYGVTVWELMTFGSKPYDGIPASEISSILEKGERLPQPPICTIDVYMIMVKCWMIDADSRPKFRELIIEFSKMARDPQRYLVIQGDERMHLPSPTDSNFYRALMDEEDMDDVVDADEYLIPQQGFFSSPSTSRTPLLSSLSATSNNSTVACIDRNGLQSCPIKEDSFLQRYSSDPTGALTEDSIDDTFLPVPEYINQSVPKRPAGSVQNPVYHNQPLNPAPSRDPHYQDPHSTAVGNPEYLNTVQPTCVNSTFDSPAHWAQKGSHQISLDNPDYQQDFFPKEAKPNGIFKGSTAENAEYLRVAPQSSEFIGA
# Chain of EGFR del19/C797S (P00533 with tags, fused parts or gaps DEL746-750/C797S): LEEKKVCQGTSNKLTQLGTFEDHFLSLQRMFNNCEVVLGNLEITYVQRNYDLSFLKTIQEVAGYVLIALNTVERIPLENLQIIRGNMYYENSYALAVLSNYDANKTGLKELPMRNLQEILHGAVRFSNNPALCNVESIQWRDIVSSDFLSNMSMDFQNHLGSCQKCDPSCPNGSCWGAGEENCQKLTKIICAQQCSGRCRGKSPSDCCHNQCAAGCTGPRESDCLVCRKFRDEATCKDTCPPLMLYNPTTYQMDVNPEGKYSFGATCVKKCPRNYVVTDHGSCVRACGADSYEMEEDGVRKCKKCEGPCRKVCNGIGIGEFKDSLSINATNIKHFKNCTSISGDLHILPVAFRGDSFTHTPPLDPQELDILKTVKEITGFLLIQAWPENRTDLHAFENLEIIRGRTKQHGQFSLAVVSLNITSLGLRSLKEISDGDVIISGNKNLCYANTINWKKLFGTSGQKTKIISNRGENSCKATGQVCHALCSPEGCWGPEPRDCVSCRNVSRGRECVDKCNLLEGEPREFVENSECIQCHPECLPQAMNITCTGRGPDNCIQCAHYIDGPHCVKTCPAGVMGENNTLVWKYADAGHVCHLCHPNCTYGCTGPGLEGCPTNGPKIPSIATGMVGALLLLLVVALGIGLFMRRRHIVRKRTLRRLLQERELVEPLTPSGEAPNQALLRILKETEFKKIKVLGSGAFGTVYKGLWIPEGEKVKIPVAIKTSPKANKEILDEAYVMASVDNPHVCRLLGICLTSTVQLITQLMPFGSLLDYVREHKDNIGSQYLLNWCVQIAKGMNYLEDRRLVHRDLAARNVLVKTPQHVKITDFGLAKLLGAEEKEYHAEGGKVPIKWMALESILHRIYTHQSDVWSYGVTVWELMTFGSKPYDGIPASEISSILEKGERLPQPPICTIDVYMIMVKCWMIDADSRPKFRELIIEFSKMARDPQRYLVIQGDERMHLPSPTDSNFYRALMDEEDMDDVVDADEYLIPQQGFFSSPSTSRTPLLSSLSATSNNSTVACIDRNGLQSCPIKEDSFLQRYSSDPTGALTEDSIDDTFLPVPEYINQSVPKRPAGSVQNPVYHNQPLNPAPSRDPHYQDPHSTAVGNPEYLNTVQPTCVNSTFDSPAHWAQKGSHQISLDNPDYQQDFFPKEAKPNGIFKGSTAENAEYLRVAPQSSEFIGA
# Chain of EGFR L858R/C797S (P00533 25-1210 C797S/L858R): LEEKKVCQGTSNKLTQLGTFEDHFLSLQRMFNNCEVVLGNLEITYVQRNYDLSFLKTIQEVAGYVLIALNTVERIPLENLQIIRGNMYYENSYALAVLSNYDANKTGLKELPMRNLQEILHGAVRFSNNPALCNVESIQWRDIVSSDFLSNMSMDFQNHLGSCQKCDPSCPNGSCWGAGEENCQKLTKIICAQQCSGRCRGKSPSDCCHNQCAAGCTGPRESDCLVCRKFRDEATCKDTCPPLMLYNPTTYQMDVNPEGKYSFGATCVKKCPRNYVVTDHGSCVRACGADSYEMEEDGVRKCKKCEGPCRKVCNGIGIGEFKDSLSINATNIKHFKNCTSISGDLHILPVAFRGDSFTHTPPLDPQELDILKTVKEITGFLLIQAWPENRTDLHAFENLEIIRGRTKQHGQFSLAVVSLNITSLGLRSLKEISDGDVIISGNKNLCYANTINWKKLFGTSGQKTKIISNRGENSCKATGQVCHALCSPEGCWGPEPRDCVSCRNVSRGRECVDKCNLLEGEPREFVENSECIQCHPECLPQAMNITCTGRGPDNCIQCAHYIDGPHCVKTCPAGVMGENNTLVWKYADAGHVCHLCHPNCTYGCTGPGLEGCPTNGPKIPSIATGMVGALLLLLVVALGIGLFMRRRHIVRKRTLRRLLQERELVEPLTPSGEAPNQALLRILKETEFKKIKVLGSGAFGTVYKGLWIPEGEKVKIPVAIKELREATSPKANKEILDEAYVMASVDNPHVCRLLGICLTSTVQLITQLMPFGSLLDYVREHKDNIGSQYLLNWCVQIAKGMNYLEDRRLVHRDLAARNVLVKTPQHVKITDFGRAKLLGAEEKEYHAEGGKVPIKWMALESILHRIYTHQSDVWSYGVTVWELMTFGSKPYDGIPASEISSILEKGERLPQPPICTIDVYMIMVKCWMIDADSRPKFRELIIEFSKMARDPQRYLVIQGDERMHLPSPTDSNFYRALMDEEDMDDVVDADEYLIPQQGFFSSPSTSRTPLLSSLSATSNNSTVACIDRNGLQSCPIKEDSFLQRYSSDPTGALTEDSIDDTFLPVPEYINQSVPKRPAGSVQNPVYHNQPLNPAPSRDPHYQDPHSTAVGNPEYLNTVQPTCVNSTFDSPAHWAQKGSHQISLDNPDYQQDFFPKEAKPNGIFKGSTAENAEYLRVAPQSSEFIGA
# Chain of EGFR L858R/T790M/C797S (P00533 25-1210 T790M/C797S/L858R): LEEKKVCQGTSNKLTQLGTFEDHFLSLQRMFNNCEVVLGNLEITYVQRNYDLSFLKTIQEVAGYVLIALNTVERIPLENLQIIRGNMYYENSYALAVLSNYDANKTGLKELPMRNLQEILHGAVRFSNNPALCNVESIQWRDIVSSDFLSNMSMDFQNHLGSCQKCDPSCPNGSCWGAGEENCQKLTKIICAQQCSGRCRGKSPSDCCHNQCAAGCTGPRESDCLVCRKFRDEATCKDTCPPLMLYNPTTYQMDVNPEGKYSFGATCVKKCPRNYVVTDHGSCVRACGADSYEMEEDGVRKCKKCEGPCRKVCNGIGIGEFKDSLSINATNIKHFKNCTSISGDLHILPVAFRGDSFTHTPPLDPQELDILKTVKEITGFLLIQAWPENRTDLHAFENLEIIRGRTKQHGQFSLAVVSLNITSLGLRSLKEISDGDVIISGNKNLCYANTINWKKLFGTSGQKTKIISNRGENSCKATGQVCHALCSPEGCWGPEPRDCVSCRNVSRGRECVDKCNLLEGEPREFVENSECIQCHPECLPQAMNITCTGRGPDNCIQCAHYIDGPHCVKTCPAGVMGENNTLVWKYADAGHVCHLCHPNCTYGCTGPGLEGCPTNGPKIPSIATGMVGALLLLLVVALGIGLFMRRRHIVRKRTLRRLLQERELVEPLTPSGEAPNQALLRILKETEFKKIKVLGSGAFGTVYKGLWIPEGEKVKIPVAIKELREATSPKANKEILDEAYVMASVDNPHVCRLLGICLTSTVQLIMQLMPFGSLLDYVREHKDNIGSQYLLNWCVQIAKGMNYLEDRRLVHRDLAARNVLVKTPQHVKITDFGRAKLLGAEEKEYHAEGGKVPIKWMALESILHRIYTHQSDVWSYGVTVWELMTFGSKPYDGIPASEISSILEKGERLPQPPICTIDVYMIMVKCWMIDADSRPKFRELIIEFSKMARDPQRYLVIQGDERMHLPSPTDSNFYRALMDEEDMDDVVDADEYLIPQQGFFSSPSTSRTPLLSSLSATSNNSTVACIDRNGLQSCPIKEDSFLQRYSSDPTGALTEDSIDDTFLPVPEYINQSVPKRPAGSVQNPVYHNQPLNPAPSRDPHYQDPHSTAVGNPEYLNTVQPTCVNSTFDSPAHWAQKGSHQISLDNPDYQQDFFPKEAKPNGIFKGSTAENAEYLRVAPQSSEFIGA
Structure (SMILES),IC50 (EGFR wildtype; [1]) [nM],IC50 (EGFR L858R/C797S; [2]) [nM],IC50 (EGFR del19/C797S; [3]) [nM],IC50 (EGFR del19/T790M/C797S; [4]) [nM],IC50 (EGFR L858R/T790M/C797S; [5]) [nM],IC50 (EGFR wildtype; [6]) [nM],"IC50 (EGFR wildtype; IC50 WT, 100 μM ATP) [nM]",IC50 (EGFR L858R/C797S; [7]) [nM],"IC50 (EGFR L858R/C797S; IC50 L858R/C797S, 100 μM ATP) [nM]",IC50 (EGFR del19/C797S; [8]) [nM],"IC50 (EGFR del19/C797S; IC50 del19/C797S, 100 μM ATP) [nM]",IC50 (EGFR del19/T790M/C797S; [9]) [nM],IC50 (EGFR del19/T790M/C797S; [10]) [nM],IC50 (EGFR L858R/T790M/C797S; [11]) [nM],IC50 (EGFR L858R/T790M/C797S; [12]) [nM],IC50 (EGFR wildtype; [13]) [nM],IC50 (EGFR L858R/C797S; [14]) [nM],IC50 (EGFR del19/C797S; [15]) [nM],IC50 (EGFR del19/T790M/C797S; [16]) [nM],IC50 (EGFR L858R/T790M/C797S; [17]) [nM]
"CC(F)(F)c1ccc(-c2cnc(Nc3ccnc(-c4cnn(S(=O)(=O)C5CC5)c4)n3)cc2N[C@H]2CC[C@@H](CO)CC2)nc1 [Example 241, ((1s,4s)-4-((6′-((2-(1-(Cyclopropylsulfonyl)-1H-pyrazol-4-yl)pyrimidin-4-yl)amino)-5-(1,1-difluoroethyl)-[2,3′-bipyridin]-4′-yl)amino)cyclohexyl)methanol]",–,–,–,–,–,20.3,2640,2.9,22,6.3,12.9,2.3,4.4,1.8,6.9,–,–,–,–,–
"CN(C)C[C@H]1CC[C@@H](Nc2cc(Nc3ccnc(-c4cnn(S(=O)(=O)C5CC5)c4)n3)ncc2-c2ccc(OC(F)(F)F)cn2)CC1 [Example 197, N^6′-(2-(1-(Cyclopropylsulfonyl)-1H-pyrazol-4-yl)pyrimidin-4-yl)-N^4′-((1s,4s)-4-((dimethylamino)methyl)cyclohexyl)-5-(trifluoromethoxy)-[2,3′-bipyridine]-4′,6′-diamine]",–,–,–,–,–,3,1240,0.3,5.3,1,1.1,0.6,0.5,0.3,0.5,–,–,–,–,–
"CC(C)(O)c1ccnc(-c2cnc(Nc3ccnc(-c4cnn(S(=O)(=O)C5CC5)c4)n3)cc2N[C@H]2CC[C@@H](C(C)(C)O)CC2)c1 [Example 109, 2-(6′-((2-(1-(Cyclopropylsulfonyl)-1H-pyrazol-4-yl)pyrimidin-4-yl)amino)-4′-(((1s,4s)-4-(2-hydroxypropan-2-yl)cyclohexyl)amino)-[2,3′-bipyridin]-4-yl)propan-2-ol]",1360,11.1,6.4,–,0.5,–,–,–,–,–,–,–,–,–,–,5.2,0.1,0.8,2,0.6
"CC(C)(O)c1ccnc(-c2cnc(Nc3ccnc(-c4cnn(S(=O)(=O)C5CC5)c4)n3)cc2N[C@H]2CC[C@@](C)(O)CC2)c1 [Example 108, (1s,4s)-4-((6′-((2-(1-(Cyclopropylsulfonyl)-1H-pyrazol-4-yl)pyrimidin-4-yl)amino)-4-(2-hydroxypropan-2-yl)-[2,3′-bipyridin]-4′-yl)amino)-1-methylcyclohexan-1-ol]",1860,3.6,0.9,0.4,0.2,–,–,–,–,–,–,–,–,–,–,6.9,0.4,0.4,0.4,0.2
"Cc1ccnc(-c2cnc(Nc3ccnc(-c4cnn(S(=O)(=O)C5CC5)c4)n3)cc2N[C@H]2CC[C@@](C)(O)CC2)c1 [Example 12, (1s,4s)-4-((6′-((2-(1-(Cyclopropylsulfonyl)-1H-pyrazol-4-yl)pyrimidin-4-yl)amino)-4-methyl-[2,3′-bipyridin]-4′-yl)amino)-1-methylcyclohexan-1-ol]",2690,11.5,1,0.4,0.6,–,–,–,–,–,–,–,–,–,–,3.6,–,0.4,–,0.2
"O=S(=O)(C1CC1)n1cc(-c2nccc(Nc3cc(N[C@H]4CC[C@@H](F)CC4)c(-c4cnc(OC5CCOCC5)cn4)cn3)n2)cn1 [Example 151, N^2-(2-(1-(Cyclopropylsulfonyl)-1H-pyrazol-4-yl)pyrimidin-4-yl)-N^4-((1s,4s)-4-fluorocyclohexyl)-5-(5-((tetrahydro-2H-pyran-4-yl)oxy)pyrazin-2-yl)pyridine-2,4-diamine]",–,–,–,–,–,1910,–,17.2,–,34,–,0.8,–,0.1,–,–,–,–,–,–
"O=S(=O)(C1CC1)n1cc(-c2nccc(Nc3cc(N[C@H]4CC[C@@H](CO)CC4)c(-c4ccnc(N[C@H]5CC[C@@H](CO)CC5)n4)cn3)n2)cn1 [Example 192, ((1s,4s)-4-((4-(6-((2-(1-(Cyclopropylsulfonyl)-1H-pyrazol-4-yl)pyrimidin-4-yl)amino)-4-(((1s,4s)-4-(hydroxymethyl)cyclohexyl)amino)pyridin-3-yl)pyrimidin-2-yl)amino)cyclohexyl)methanol]",–,–,–,–,–,–,6510,–,7.8,–,2,–,0.6,–,0.5,–,–,–,–,–

# More lines, now with the values ahead:
IC50 (EGFR wildtype; [1]) [nM],IC50 (EGFR L858R/C797S; [2]) [nM],IC50 (EGFR del19/C797S; [3]) [nM],IC50 (EGFR del19/T790M/C797S; [4]) [nM],IC50 (EGFR L858R/T790M/C797S; [5]) [nM],IC50 (EGFR wildtype; [6]) [nM],"IC50 (EGFR wildtype; IC50 WT, 100 μM ATP) [nM]",IC50 (EGFR L858R/C797S; [7]) [nM],"IC50 (EGFR L858R/C797S; IC50 L858R/C797S, 100 μM ATP) [nM]",IC50 (EGFR del19/C797S; [8]) [nM],"IC50 (EGFR del19/C797S; IC50 del19/C797S, 100 μM ATP) [nM]",IC50 (EGFR del19/T790M/C797S; [9]) [nM],IC50 (EGFR del19/T790M/C797S; [10]) [nM],IC50 (EGFR L858R/T790M/C797S; [11]) [nM],IC50 (EGFR L858R/T790M/C797S; [12]) [nM],IC50 (EGFR wildtype; [13]) [nM],IC50 (EGFR L858R/C797S; [14]) [nM],IC50 (EGFR del19/C797S; [15]) [nM],IC50 (EGFR del19/T790M/C797S; [16]) [nM],IC50 (EGFR L858R/T790M/C797S; [17]) [nM],Structure (SMILES)
3940,1.8,0.4,0.2,0.2,–,–,–,–,–,–,–,–,–,–,–,–,–,–,–,"C[C@]1(O)CC[C@@H](Nc2cc(Nc3ccnc(-c4cnn(S(=O)(=O)C5CC5)c4)n3)ncc2-c2cc(CN3CCOCC3)ccn2)CC1 [Example 61, (1s,4s)-4-((6′-((2-(1-(Cyclopropylsulfonyl)-1H-pyrazol-4-yl)pyrimidin-4-yl)amino)-4-(morpholinomethyl)-[2,3′-bipyridin]-4′-yl)amino)-1-methylcyclohexan-1-ol]"
172,78.8,7.2,1.6,2.3,–,–,–,–,–,–,–,–,–,–,0.1,4.7,4.4,1,1.4,"COC1CN(c2ccc(-c3cnc(Nc4ccnc(-c5cnn(S(=O)(=O)C6CC6)c5)n4)cc3N[C@H]3CC[C@@H](C(C)(C)O)CC3)nc2)C1 [Example 92, 2-((1s,4s)-4-((6′-((2-(1-(Cyclopropylsulfonyl)-1H-pyrazol-4-yl)pyrimidin-4-yl)amino)-5-(3-methoxyazetidin-1-yl)-[2,3′-bipyridin]-4′-yl)amino)cyclohexyl)propan-2-ol]"
108,0.3,0.2,0.1,0.2,–,–,–,–,–,–,–,–,–,–,1,0.03,0.1,0.1,0.1,"CC(C)(O)c1cnc(-c2cnc(Nc3ccnc(-c4cnn(S(=O)(=O)C5CC5)c4)n3)cc2N[C@H]2CC[C@@H](CO)CC2)cn1 [Example 119, 2-(5-(6-((2-(1-(Cyclopropylsulfonyl)-1H-pyrazol-4-yl)pyrimidin-4-yl)amino)-4-(((1s,4s)-4-(hydroxymethyl)cyclohexyl)amino)pyridin-3-yl)pyrazin-2-yl)propan-2-ol]"
–,–,–,–,–,0.2,–,0.3,–,0.2,–,0.5,–,0.1,–,–,–,–,–,–,"CN1CCC(Oc2ccc(-c3cnc(Nc4ccnc(-c5cnn(S(=O)(=O)C6CC6)c5)n4)cc3N[C@H]3CC[C@@H](CO)CC3)nc2)CC1 [Example 251, ((1s,4s)-4-((6′-((2-(1-(Cyclopropylsulfonyl)-1H-pyrazol-4-yl)pyrimidin-4-yl)amino)-5-((1-methylpiperidin-4-yl)oxy)-[2,3′-bipyridin]-4′-yl)amino)cyclohexyl)methanol]"
> 10000,21.3,1.1,0.2,0.3,–,–,–,–,–,–,–,–,–,–,6.6,0.7,0.7,0.2,0.1,"O=S(=O)(C1CC1)n1cc(-c2nccc(Nc3cc(N[C@H]4CC[C@](O)(CO)CC4)c(-c4ccccn4)cn3)n2)cn1 [Example 37, (1s,4s)-4-((6′-((2-(1-(Cyclopropylsulfonyl)-1H-pyrazol-4-yl)pyrimidin-4-yl)amino)-[2,3′-bipyridin]-4′-yl)amino)-1-(hydroxymethyl)cyclohexan-1-ol]"
167,1.9,0.7,0.1,0.3,–,–,–,–,–,–,–,–,–,–,1,0.2,0.2,–,0.1,"CN1CCN(Cc2ccc(-c3cnc(Nc4ccnc(-c5cnn(S(=O)(=O)C6CC6)c5)n4)cc3N[C@H]3CC[C@@](C)(O)CC3)nc2)CC1 [Example 9, (1s,4s)-4-((6′-((2-(1-(Cyclopropylsulfonyl)-1H-pyrazol-4-yl)pyrimidin-4-yl)amino)-5-((4-methylpiperazin-1-yl)methyl)-[2,3′-bipyridin]-4′-yl)amino)-1-methylcyclohexan-1-ol]"
–,–,–,–,–,11.6,> 10000,1.9,12.4,0.9,1.2,0.1,0.1,0.1,0.5,–,–,–,–,–,"O=S(=O)(C1CC1)n1cc(-c2nccc(Nc3cc(NCC4(CO)COC4)c(-c4cccc(F)n4)cn3)n2)cn1 [Example 161, (3-(((6′-((2-(1-(Cyclopropylsulfonyl)-1H-pyrazol-4-yl)pyrimidin-4-yl)amino)-6-fluoro-[2,3′-bipyridin]-4′-yl)amino)methyl)oxetan-3-yl)methanol]"
